What was measured:
[1] = Kinematic viscosity at 25° C. (ASTM D-445-97); assay type: physicochemical
Protocol: Kinematic viscosity was tested at 25° C. using ASTM (American Society of Testing and Materials, West Conshohocken, Pa., United States of America) Official Method No. D-445-97 (1997), the contents of which are incorporated herein by reference. Color was measured using ASTM D-1209-97 (1997), acid value was determined using ASTM D-972-95 (1995) and hydroxyl number was determined using a modified version of AOCS (American Oil Chemists Society, Champaign, Ill., United States of America) Official Method No. Cd-13-60 (1997), the contents of which are incorporated herein by reference. Odor was determined using a subjective olfactory assessment.

[2] = Spreading characteristics on WHATMAN filter paper (50 microliters); assay type: physicochemical; conditions: for Spreadibility (1 minute) / Spreadibility (3 minutes) / Spreadibility (5 minutes): 50 microliters on filter paper
Protocol: The spreading characteristics of fluid used in personal care products are an effective predictor of “skin feel.” To test the spreading characteristics a four inch WHATMAN® filter paper was positioned horizontally over an eight ounce jar. Fifty microliters of each product were then pipetted onto the center of the filter paper. The spreading area of the liquid was then measured at intervals of one, three, and five minutes. Faster spreading products will have a higher spreading area at each time interval.

SMILES	Viscosity at 25° C. [1] [cSt]	Spreadibility (1 minute) [2] [cm]	Spreadibility (3 minutes) [2] [cm]	Spreadibility (5 minutes) [2] [cm]	viscosity ([1]; stated in description) [centistokes]	spreading (in words) ([2]; stated in description)	Spreadibility (1 minute) ([2]; listed as D5 Fluid) [cm]	Spreadibility (3 minutes) ([2]; listed as D5 Fluid) [cm]	Spreadibility (5 minutes) ([2]; listed as D5 Fluid) [cm]
CC(C)C(=O)OCC(C)(C)COC(=O)C(C)C [NDI]	3.5	3.18	3.63	3.88					
CCCCCC(=O)OCCOCCOC(=O)CCCCC [DEGDH, diethylene glycol dihexanoate]	14.4	2.98	3.43	3.68					
CCC(CC)C(=O)OCC(C)(C)COC(=O)C(CC)CC [ND2EB, neopentyl glycol di-2-ethylbutyrate]	7.6	3.00	3.43	3.63					
CCCCC(=O)OCC(C)(C)COC(=O)CCCC [NDP, neopentyl glycol dipentanoate]	5.1	3.08	3.48	3.85	5.1	rapidly spreading			
C[Si]1(C)O[Si](C)(C)O[Si](C)(C)O[Si](C)(C)O[Si](C)(C)O1 [Example D5, reference compound]	4.0	2.90	3.40	3.60			2.9	3.4	3.6
C[Si]1(C)O[Si](C)(C)O[Si](C)(C)O[Si](C)(C)O1 [Example D4, reference compound]		3.10	3.50	3.60					
